Experimental data reported in patent publication US20250312311A1, “Low Dose Fipronil Deer Feed” (priority 2024, published 2025).

Legend:
Amblyomma americanum = assay: Pen study: FDF efficacy against Amblyomma americanum parasitizing white-tailed deer (tick capsules, 8-day post-attachment); type: in vivo; conditions: Cp 13.5 ppb; the tick was A. americanum
I. scapularis larvae [1] = conditions: larvae parasitizing P. leucopus; Poché et al. 2021; cited from earlier work
I. scapularis larvae [2] = conditions: larvae parasitizing Peromyscus maniculatus; Pelletier et al. 2020; cited from earlier work

Row | SMILES | live female ticks collected in total from a deer having Cp at 13.5 ppb (Amblyomma americanum) | Cp determined to control 100% I. scapularis larvae (I. scapularis larvae [1]) | concentration in plasma required to control 94% I. scapularis larvae (I. scapularis larvae [2]) | concentration in plasma required to control 97% I. scapularis larvae (I. scapularis larvae [2])
1 | N#Cc1nn(-c2c(Cl)cc(C(F)(F)F)cc2Cl)c(N)c1S(=O)(=O)C(F)(F)F [fipronil sulfone] | one | ≥ 8.8 ppb |  | 
2 | Cc1cc(C2=NOC(c3cc(Cl)cc(Cl)c3)(C(F)(F)F)C2)ccc1C(=O)NCC(=O)NCC(F)(F)F (stereo not shown) [fluralaner] |  |  | 4000 ppb | 13000 ppb
